Data published in patent US7884136B2, “Modified-release formulations of a bupropion salt” (Biovail Laboratories International S.R.L., priority 2005, dated 2011).

Assay: Shelf life stability program of bupropion HBr, 25° C./60% RH, 3 and 6 months, HPLC
Type: physicochemical
Settings: 25° C./RH 60%; for Chromatographic purity B) (HPLC): 4) 2-N-(tert-Butyl)-aminopropiophenone / Chromatographic purity B) (HPLC): 5) single unknown impurity (each): LOQ 0.02%, LOD 0.002%; for Chromatographic purity A) (HPLC): 1) 3′-Chloropropiophenone / Chromatographic purity A) (HPLC): 3) 3′-Chlorobenzoic acid / Chromatographic purity A) (HPLC): 2) 3′-Chloro-2-bromopropiophenone: LOQ 0.05%; for Chromatographic purity A) (HPLC): 1) 3′-Chloropropiophenone / Chromatographic purity A) (HPLC): 3) 3′-Chlorobenzoic acid: LOD 0.01%; for Chromatographic purity A) (HPLC): 2) 3′-Chloro-2-bromopropiophenone: LOD 0.04%; for Description: specification white or almost white crystalline powder; for Assay (HPLC): on d.b.; for Chromatographic purity B) (HPLC): 6) total unknown impurities: sum of all impurity peak areas
Experimental: The stability of bupropion HBr was studied over a longer term under conditions meant to approximate standard storage or shelf conditions. Samples were prepared in closed containers and subjected to long-term storage at 25° C.+2° C. and 60%+5% RH in a stability chamber. The samples were analyzed by HPLC prior to being placed in the stability chamber (time 0) and after 3 months and 6 months. The amounts of the main degradation products present at time 0 were compared with the amounts present at 3 months and 6 months. As shown in Table 77-79 three different batches of bupropion HBr were tested. As in Example 10 each sample was tested under two HPLC assay conditions to identify 6 impurities or groups of impurities as described in Example 10.

## Br.CC(NC(C)(C)C)C(=O)c1cccc(Cl)c1 (stereo not shown) [Bupropion•HBr D00895]
3 months
  Chromatographic purity (HPLC: A + B) Total impurities: 0.1%
  Water content (K.F.): 0.04%
  Chromatographic purity B) (HPLC): 4) 2-N-(tert-Butyl)-aminopropiophenone: 4) 0.03%
  Chromatographic purity B) (HPLC): 5) single unknown impurity (each): 5) 0.04%
  Chromatographic purity A) (HPLC): 1) 3′-Chloropropiophenone: 1) n.q.
  Chromatographic purity A) (HPLC): 3) 3′-Chlorobenzoic acid: 3) n.q.
  Chromatographic purity A) (HPLC): 2) 3′-Chloro-2-bromopropiophenone: 2) n.d.
  Description: conform
6 months
  Chromatographic purity (HPLC: A + B) Total impurities: 0.1%
  Water content (K.F.): 0.05%
  Chromatographic purity B) (HPLC): 4) 2-N-(tert-Butyl)-aminopropiophenone: 4) 0.05%
  Chromatographic purity B) (HPLC): 5) single unknown impurity (each): 5) n.q.
  Chromatographic purity A) (HPLC): 1) 3′-Chloropropiophenone: 1) 0.05%
  Chromatographic purity A) (HPLC): 3) 3′-Chlorobenzoic acid: 3) n.q.
  Chromatographic purity A) (HPLC): 2) 3′-Chloro-2-bromopropiophenone: 2) n.d.
  Assay (HPLC): 100.1%
  Description: conform
  Chromatographic purity B) (HPLC): 6) total unknown impurities: 6) 0.02%
9 months
  Chromatographic purity (HPLC: A + B) Total impurities: n.q.
  Water content (K.F.): 0.05%
  Chromatographic purity B) (HPLC): 4) 2-N-(tert-Butyl)-aminopropiophenone: 4) n.d.
  Chromatographic purity B) (HPLC): 5) single unknown impurity (each): 5) n.q.
  Chromatographic purity A) (HPLC): 1) 3′-Chloropropiophenone: 1) n.q.
  Chromatographic purity A) (HPLC): 3) 3′-Chlorobenzoic acid: 3) n.q.
  Chromatographic purity A) (HPLC): 2) 3′-Chloro-2-bromopropiophenone: 2) n.d.
  Description: conform
  Chromatographic purity B) (HPLC): 6) total unknown impurities: 6) n.q.
12 months
  Chromatographic purity (HPLC: A + B) Total impurities: 0.2%
  Water content (K.F.): 0.04%
  Chromatographic purity B) (HPLC): 4) 2-N-(tert-Butyl)-aminopropiophenone: 4) 0.05%
  Chromatographic purity B) (HPLC): 5) single unknown impurity (each): 5) 0.07%
  Chromatographic purity A) (HPLC): 1) 3′-Chloropropiophenone: 1) n.d.
  Chromatographic purity A) (HPLC): 3) 3′-Chlorobenzoic acid: 3) 0.05%
  Chromatographic purity A) (HPLC): 2) 3′-Chloro-2-bromopropiophenone: 2) n.d.
  Description: conform
  Chromatographic purity B) (HPLC): 6) total unknown impurities: 6) 0.07%
Time 0
  Chromatographic purity (HPLC: A + B) Total impurities: 0.1%
  Water content (K.F.): 0.04%
  Chromatographic purity B) (HPLC): 4) 2-N-(tert-Butyl)-aminopropiophenone: 4) 0.04%
  Chromatographic purity B) (HPLC): 5) single unknown impurity (each): 5) 0.04%
  Chromatographic purity A) (HPLC): 1) 3′-Chloropropiophenone: 1) n.d.
  Chromatographic purity A) (HPLC): 3) 3′-Chlorobenzoic acid: 3) n.q.
  Chromatographic purity A) (HPLC): 2) 3′-Chloro-2-bromopropiophenone: 2) n.d.
  Assay (HPLC): 99.2%
  Description: conform
  Chromatographic purity B) (HPLC): 6) total unknown impurities: 6) 0.04%

## Br.CC(NC(C)(C)C)C(=O)c1cccc(Cl)c1 (stereo not shown) [Bupropion•HBr D00896]
3 months
  Chromatographic purity (HPLC: A + B) Total impurities: 0.1%
  Water content (K.F.): 0.04%
  Chromatographic purity B) (HPLC): 4) 2-N-(tert-Butyl)-aminopropiophenone: 4) 0.03%
  Chromatographic purity B) (HPLC): 5) single unknown impurity (each): 5) 0.04%
  Chromatographic purity A) (HPLC): 1) 3′-Chloropropiophenone: 1) n.q.
  Chromatographic purity A) (HPLC): 3) 3′-Chlorobenzoic acid: 3) n.q.
  Chromatographic purity A) (HPLC): 2) 3′-Chloro-2-bromopropiophenone: 2) n.d.
  Description: conform
  Chromatographic purity B) (HPLC): 6) total unknown impurities: 6) 0.05%
6 months
  Chromatographic purity (HPLC: A + B) Total impurities: 0.1%
  Water content (K.F.): 0.04%
  Chromatographic purity B) (HPLC): 4) 2-N-(tert-Butyl)-aminopropiophenone: 4) 0.04%
  Chromatographic purity B) (HPLC): 5) single unknown impurity (each): 5) n.q.
  Chromatographic purity A) (HPLC): 1) 3′-Chloropropiophenone: 1) 0.05%
  Chromatographic purity A) (HPLC): 3) 3′-Chlorobenzoic acid: 3) n.q.
  Chromatographic purity A) (HPLC): 2) 3′-Chloro-2-bromopropiophenone: 2) n.d.
  Assay (HPLC): 100.5%
  Description: conform
  Chromatographic purity B) (HPLC): 6) total unknown impurities: 6) n.q.
9 months
  Chromatographic purity (HPLC: A + B) Total impurities: n.q.
  Water content (K.F.): 0.04%
  Chromatographic purity B) (HPLC): 4) 2-N-(tert-Butyl)-aminopropiophenone: 4) n.d.
  Chromatographic purity B) (HPLC): 5) single unknown impurity (each): 5) n.q.
  Chromatographic purity A) (HPLC): 1) 3′-Chloropropiophenone: 1) n.q.
  Chromatographic purity A) (HPLC): 3) 3′-Chlorobenzoic acid: 3) n.q.
  Chromatographic purity A) (HPLC): 2) 3′-Chloro-2-bromopropiophenone: 2) n.d.
  Description: conform
  Chromatographic purity B) (HPLC): 6) total unknown impurities: 6) n.q.
12 months
  Chromatographic purity (HPLC: A + B) Total impurities: 0.1%
  Water content (K.F.): 0.03%
  Chromatographic purity B) (HPLC): 4) 2-N-(tert-Butyl)-aminopropiophenone: 4) 0.05%
  Chromatographic purity B) (HPLC): 5) single unknown impurity (each): 5) 0.07%
  Chromatographic purity A) (HPLC): 1) 3′-Chloropropiophenone: 1) n.d.
  Chromatographic purity A) (HPLC): 3) 3′-Chlorobenzoic acid: 3) n.q.
  Chromatographic purity A) (HPLC): 2) 3′-Chloro-2-bromopropiophenone: 2) n.d.
  Assay (HPLC): 100.3%
  Description: conform
  Chromatographic purity B) (HPLC): 6) total unknown impurities: 6) 0.07%
Time 0
  Chromatographic purity (HPLC: A + B) Total impurities: 0.1%
  Water content (K.F.): 0.06%
  Chromatographic purity B) (HPLC): 4) 2-N-(tert-Butyl)-aminopropiophenone: 4) 0.04%
  Chromatographic purity B) (HPLC): 5) single unknown impurity (each): 5) 0.05%
  Chromatographic purity A) (HPLC): 1) 3′-Chloropropiophenone: 1) n.d.
  Chromatographic purity A) (HPLC): 3) 3′-Chlorobenzoic acid: 3) n.q.
  Chromatographic purity A) (HPLC): 2) 3′-Chloro-2-bromopropiophenone: 2) n.d.
  Assay (HPLC): 99.3%
  Description: conform
  Chromatographic purity B) (HPLC): 6) total unknown impurities: 6) 0.05%
